Measurements as given in ChEMBL document CHEMBL1201862, “PubChem BioAssay data set” (2004).
Activity calls are given as the source filed them.

Key:
Type in all cases: functional
[1] = SAR analysis of small molecule activators of Apaf-1 using a LZ-Caspase-9/Caspase-3 Fluorescent Selectivity assay - Set 2.; conditions: read-out: EC50_Mean
[2] = target: Apoptotic protease-activating factor 1 (Homo sapiens, UniProt O14727); test: SAR analysis of small molecule Activators of Apaf-1 in a Fluorescent assay - set 2.; conditions: read-out: EC50_Mean
Sequence of Apoptotic protease-activating factor 1 (O14727 whole entry): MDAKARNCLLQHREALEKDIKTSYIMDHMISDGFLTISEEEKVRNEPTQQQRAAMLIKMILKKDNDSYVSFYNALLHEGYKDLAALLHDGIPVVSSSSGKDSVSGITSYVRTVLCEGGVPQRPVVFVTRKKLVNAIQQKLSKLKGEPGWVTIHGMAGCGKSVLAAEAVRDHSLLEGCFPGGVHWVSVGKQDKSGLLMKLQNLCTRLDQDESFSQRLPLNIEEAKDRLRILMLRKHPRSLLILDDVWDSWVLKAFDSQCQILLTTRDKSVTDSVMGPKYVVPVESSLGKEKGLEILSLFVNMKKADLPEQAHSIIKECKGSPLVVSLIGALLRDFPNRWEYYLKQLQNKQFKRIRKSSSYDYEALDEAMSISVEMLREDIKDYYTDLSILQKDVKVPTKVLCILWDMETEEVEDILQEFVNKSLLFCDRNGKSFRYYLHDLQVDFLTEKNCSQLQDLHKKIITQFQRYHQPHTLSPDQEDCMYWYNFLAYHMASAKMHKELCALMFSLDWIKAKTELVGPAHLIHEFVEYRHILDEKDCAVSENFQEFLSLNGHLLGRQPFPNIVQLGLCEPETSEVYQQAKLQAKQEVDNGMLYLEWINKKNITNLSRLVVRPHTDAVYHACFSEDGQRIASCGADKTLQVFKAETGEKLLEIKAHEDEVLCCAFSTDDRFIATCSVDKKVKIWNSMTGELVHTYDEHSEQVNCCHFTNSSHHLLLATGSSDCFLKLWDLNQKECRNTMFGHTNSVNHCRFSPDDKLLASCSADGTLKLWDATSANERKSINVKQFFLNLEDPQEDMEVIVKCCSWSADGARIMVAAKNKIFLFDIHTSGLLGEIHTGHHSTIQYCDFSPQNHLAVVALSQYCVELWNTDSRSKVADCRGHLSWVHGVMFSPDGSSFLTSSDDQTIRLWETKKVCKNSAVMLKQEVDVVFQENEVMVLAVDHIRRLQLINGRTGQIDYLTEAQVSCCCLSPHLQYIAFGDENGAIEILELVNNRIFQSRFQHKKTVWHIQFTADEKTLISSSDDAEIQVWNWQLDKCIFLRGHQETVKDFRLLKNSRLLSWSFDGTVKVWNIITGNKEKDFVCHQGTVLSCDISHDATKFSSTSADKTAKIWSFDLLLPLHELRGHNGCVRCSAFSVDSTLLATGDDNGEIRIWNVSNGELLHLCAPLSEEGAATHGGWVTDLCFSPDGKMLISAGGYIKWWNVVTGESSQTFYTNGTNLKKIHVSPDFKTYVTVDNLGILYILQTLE

[3] = target: Melanin-concentrating hormone receptor 1 (Homo sapiens, UniProt Q99705); test: Late-stage fluorescence-based counterscreen for antagonists of the G-protein coupled receptor 7 (GPR7): cell-based dose response assay to identify antagonists of the melanin-concentrating hormone receptor 1 (MCHR1) Set 5.
Sequence of Melanin-concentrating hormone receptor 1 (Q99705 whole entry): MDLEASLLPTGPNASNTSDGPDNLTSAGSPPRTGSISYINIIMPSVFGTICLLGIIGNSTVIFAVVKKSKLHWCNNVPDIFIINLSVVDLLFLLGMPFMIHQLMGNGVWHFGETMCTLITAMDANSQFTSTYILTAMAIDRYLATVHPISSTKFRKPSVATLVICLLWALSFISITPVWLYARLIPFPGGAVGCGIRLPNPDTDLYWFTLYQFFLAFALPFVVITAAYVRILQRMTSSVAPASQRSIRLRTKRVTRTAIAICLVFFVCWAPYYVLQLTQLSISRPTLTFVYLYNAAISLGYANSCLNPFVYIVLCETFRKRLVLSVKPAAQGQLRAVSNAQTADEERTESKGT

[4] = target: T1, Neuropeptides B/W receptor type 1 (Homo sapiens, UniProt P48145); test: GPR7 antagonist potency, late-stage follow-up, cell-based, fluorescence, dose response, set 5 (AID 588566)
T1 sequence (P48145 whole entry): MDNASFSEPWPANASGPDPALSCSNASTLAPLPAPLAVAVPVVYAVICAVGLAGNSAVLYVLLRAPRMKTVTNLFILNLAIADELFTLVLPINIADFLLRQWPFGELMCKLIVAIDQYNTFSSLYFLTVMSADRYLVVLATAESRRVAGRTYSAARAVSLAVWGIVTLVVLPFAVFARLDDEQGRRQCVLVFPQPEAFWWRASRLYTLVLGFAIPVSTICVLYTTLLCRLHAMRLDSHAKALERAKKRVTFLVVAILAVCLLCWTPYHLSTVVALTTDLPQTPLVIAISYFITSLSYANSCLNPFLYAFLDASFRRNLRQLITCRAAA

Compound	EC50 [1]	EC50 [2]	IC50 [3]	IC50 [4]
Cc1nc2ccccc2n1CC(C)C(=O)O (centres undefined)	> 100 µM (inactive)	94.1 µM (active)	–	–
N#CC(c1ccccc1)c1cnn(Cc2cccc3ccccc23)c(=O)c1Br (centres undefined)	–	–	> 20 µM (inactive)	~0.227 µM (active)
